In experiment [1] the target is T1, Alkaline phosphatase, tissue-nonspecific isozyme (Homo sapiens, UniProt P05186).
T1 sequence (P05186 whole entry): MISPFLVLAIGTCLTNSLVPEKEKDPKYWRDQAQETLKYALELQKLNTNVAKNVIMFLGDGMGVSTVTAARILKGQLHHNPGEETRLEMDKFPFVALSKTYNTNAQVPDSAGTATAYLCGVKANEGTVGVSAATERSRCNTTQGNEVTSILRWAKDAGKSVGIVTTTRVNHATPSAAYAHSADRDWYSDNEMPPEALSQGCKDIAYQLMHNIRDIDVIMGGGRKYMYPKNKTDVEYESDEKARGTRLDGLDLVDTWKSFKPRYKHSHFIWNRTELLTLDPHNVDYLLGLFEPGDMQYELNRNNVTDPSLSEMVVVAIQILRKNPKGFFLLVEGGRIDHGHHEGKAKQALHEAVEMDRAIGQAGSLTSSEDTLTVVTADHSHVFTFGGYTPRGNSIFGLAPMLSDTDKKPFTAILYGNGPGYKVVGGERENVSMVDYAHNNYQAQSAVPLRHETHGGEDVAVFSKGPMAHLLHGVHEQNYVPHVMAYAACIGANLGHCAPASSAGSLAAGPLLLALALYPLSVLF
Kind of experiment: human TNAP enzyme inhibitors, SAR follow-up, biochemical, luminescent, dose response (AID 1056).

Experiment [2] has as its target Alkaline phosphatase, placental type (Homo sapiens, UniProt P05187). Kind of experiment: PLAP enzyme inhibitors, confirmation, biochemical, luminescence (AID 1512). It counts as functional.
Experiment [3] has as its target T2, Cannabinoid receptor 1 (Homo sapiens, UniProt P21554). Kind of experiment: SAR analysis of antagonists of the Cannabinoid Receptor 1 using an Image-Based Assay - Set 3. [Related pubchem assays (depositor defined):AID1961, AID1965]. It is filed as functional.
The target of experiment [4] is T3, Cannabinoid receptor 2 (Homo sapiens, UniProt P34972). The experiment is described as follows: SAR analysis of antagonists of the Cannabinoid Receptor 2 using an Image-Based Assay - Set 2. [Related pubchem assays (depositor defined):AID1961, AID1965]. It counts as functional.
For experiment [5], the target named is T2, Cannabinoid receptor 1. The experiment is described as follows: SAR analysis of agonists of the Cannabinoid Receptor 1 using an Image-Based Assay - Set 3. [Related pubchem assays (depositor defined):AID1961, AID1965]. It is filed as functional.
For experiment [6], the target named is T4, G-protein coupled receptor 35 (Homo sapiens, UniProt Q9HC97). The experiment is described as follows: SAR analysis of Agonists of the GPR35 Receptor using an Image-Based Assay - Set 3. [Related pubchem assays (depositor defined):AID1961, AID1965]. It is filed as functional.
The target in a further experiment is Major prion protein (Homo sapiens, UniProt P04156). It is filed as functional, cell-based.
Experiment [7] deals with T5, G-protein coupled receptor 55 (Homo sapiens, UniProt Q9Y2T6). The experiment is described as follows: SAR analysis of selective Agonists of GPR55 using an Image-Based Assay - Set 2. [Related pubchem assays (depositor defined):AID1961, AID1965]. It is filed as functional.
Experiment [8] concerns the target T4, G-protein coupled receptor 35. Kind of experiment: SAR analysis of Antagonists of the GPR35 Receptor using an Image-Based Assay - Set 4. [Related pubchem assays (depositor defined):[…]]. It counts as functional.
Experiment [9] addresses T3, Cannabinoid receptor 2. The experiment is described as follows: SAR analysis of agonists of the Cannabinoid Receptor 2 using an Image-Based Assay - Set 2. [Related pubchem assays (depositor defined):AID1961, AID1965]. It is filed as functional.
The target of experiment [10] is T4, G-protein coupled receptor 35. The experiment is described as follows: SAR analysis of Agonists of the GPR35 Receptor using an Image-Based Assay - Set 4. [Related pubchem assays (depositor defined):AID2013, AID2026]. It is filed as functional.
Experiment [11] concerns the target T2, Cannabinoid receptor 1. Kind of experiment: SAR analysis of agonists of the Cannabinoid Receptor 1 using an Image-Based Assay - Set 4. [Related pubchem assays (depositor defined):AID2013, AID2026]. It is filed as functional.
Experiment [12] addresses T5, G-protein coupled receptor 55. The experiment is described as follows: SAR Analysis of Selective Antagonists of GPR55 using an Image-Based Assay - Set 4. [Related pubchem assays (depositor defined):AID2013, AID2026]. It counts as functional.
The target of experiment [13] is T4, G-protein coupled receptor 35. The experiment is described as follows: SAR analysis of Antagonists of the GPR35 Receptor using an Image-Based Assay - Set 6. [Related pubchem assays (depositor defined):AID2013, AID2026]. It is filed as functional.
Experiment [14] deals with T3, Cannabinoid receptor 2. The experiment is described as follows: SAR analysis of agonists of the Cannabinoid Receptor 2 using an Image-Based Assay - Set 3. [Related pubchem assays (depositor defined):AID2013, AID2026]. It is filed as functional.
Experiment [15] concerns the target T3, Cannabinoid receptor 2. Kind of experiment: SAR analysis of antagonists of the Cannabinoid Receptor 2 using an Image-Based Assay - Set 3. [Related pubchem assays (depositor defined):AID2013, AID2026]. It counts as functional.
Experiment [16] addresses T2, Cannabinoid receptor 1. Kind of experiment: SAR analysis of antagonists of the Cannabinoid Receptor 1 using an Image-Based Assay - Set 4. [Related pubchem assays (depositor defined):AID2013, AID2026]. It counts as functional.
For experiment [17], the target named is T6, Sphingosine 1-phosphate receptor 4 (Homo sapiens, UniProt O95977).
T6 sequence (O95977 whole entry): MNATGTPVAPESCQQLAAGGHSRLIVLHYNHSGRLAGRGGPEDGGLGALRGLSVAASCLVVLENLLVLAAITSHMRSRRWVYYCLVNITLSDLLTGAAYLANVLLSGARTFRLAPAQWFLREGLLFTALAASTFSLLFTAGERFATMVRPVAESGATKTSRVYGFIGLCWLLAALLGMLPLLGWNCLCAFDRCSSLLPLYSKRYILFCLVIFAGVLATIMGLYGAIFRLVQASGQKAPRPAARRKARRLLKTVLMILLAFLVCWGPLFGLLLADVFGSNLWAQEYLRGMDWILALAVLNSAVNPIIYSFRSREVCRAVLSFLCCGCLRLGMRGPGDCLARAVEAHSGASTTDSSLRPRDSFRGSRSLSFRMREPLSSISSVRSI
The experiment is described as follows: Late-stage fluorescence dose response cell-based assay to identify agonists of the Sphingosine 1-Phosphate Receptor 4 (S1P4): purchased compounds EC50. [Related pubchem assays (depositor defined):AID1509, AID1523, AID1563, AID1686, AID1701, AID1801]. It is filed as functional.

Experiment [18] is described as follows: cytotoxicity in HEK-293T cells, dose response, cytotoxicity control for TCR NF-kB inhibitor project, luminescence, T-cell screen hits (AID 489026).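 Also: cells exposed to compound about 14 hours before the viability readout.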 It counts as functional, cell-based.
The target of experiment [19] is Tyrosine-protein phosphatase non-receptor type 12 (Homo sapiens, UniProt Q05209). Kind of experiment: SAR Selectivity Analysis of small molecule inhibitors of PEST using pCAP in a fluorescence assay. [Related pubchem assays (depositor defined):AID1779, AID1784, AID2135]. It is filed as functional.
The next experiment relates to J774.A1. The experiment is described as follows: Confirmation of image-based Screening Assay for Inhibitors of Phagocytosis. [Related pubchem assays (depositor defined):AID1029, AID1643]. It counts as functional, cell-based. To be noted: Mus musculus.
Experiment [20] deals with T7, Tyrosine-protein phosphatase non-receptor type 22 (Homo sapiens, UniProt Q9Y2R2).
T7 sequence (Q9Y2R2 whole entry): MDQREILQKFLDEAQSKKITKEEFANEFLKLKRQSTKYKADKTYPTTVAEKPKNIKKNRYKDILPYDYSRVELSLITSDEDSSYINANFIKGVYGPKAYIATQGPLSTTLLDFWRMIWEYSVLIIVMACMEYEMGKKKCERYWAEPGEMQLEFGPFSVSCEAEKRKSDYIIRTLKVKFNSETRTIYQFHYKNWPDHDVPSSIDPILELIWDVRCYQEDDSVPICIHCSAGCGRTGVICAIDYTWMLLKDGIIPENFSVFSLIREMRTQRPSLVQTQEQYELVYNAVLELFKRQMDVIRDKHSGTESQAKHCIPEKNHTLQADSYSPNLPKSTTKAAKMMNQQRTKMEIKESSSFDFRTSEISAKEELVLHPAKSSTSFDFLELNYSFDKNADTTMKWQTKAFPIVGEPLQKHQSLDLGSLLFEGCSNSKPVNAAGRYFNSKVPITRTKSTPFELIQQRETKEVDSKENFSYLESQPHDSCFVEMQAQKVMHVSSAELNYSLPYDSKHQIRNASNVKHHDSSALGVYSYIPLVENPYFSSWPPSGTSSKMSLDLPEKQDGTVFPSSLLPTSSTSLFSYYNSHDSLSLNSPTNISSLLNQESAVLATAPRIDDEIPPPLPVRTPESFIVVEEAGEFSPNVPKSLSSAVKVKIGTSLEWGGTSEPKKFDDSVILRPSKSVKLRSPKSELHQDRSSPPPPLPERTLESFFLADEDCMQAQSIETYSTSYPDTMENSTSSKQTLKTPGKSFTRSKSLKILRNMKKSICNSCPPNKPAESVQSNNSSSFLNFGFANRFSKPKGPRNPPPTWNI
The experiment is described as follows: LYP (PTPN22) phosphatase inhibitor potency, SAR follow-up, biochemical, pCAP fluorogenic substrate, fluorescence, set 3 (AID 449727). It counts as functional.

Experiment [21] deals with T7, Tyrosine-protein phosphatase non-receptor type 22. The experiment is described as follows: SAR LYP1 Fluorescent Assay using OMFP substrate for In Vitro dose response studies - Set 3. [Related pubchem assays (depositor defined):AID1779, AID1784, AID2140, AID2686]. It is filed as functional.
In experiment [22] the target is T8, Tyrosine-protein phosphatase non-receptor type 7 (Homo sapiens, UniProt P35236).
T8 sequence (P35236 whole entry): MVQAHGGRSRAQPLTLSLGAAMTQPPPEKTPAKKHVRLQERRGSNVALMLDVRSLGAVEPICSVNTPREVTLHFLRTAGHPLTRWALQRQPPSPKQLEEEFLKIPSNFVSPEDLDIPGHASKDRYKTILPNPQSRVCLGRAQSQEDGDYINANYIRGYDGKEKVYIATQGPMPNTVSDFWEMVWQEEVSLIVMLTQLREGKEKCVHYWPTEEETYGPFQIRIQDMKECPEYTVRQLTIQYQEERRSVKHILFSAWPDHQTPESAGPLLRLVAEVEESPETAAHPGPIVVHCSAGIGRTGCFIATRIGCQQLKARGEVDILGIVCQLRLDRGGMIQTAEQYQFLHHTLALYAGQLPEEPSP
Kind of experiment: HePTP (PTPN7) phosphatase inhibitor potency, SAR follow-up, biochemical, set 2 (AID 449736). It counts as functional.

Active and inactive are the calls of the source.

A word on the IC50: it is the concentration that gives 50% inhibition. The EC50 is the concentration giving half of the maximal effect.

`Cc1ccc(-n2nnnc2SCC(=O)c2ccc(O)c(O)c2)cc1`: the figures for the IC50 in experiment [1] and in experiment [2] were 8.58 µM (active) and 1.58 µM (active), respectively.
For the compound `O=C(Nc1cc(S(=O)(=O)N2CCOCC2)ccc1N1CCCC1)c1cc2c(s1)CCCC2`, the IC50 on Cannabinoid receptor 1 [3] was > 32 µM (inactive); on Cannabinoid receptor 2 [4], > 32 µM (inactive); at Major prion protein, 5.47 µM (active); in the experiment “cells” it was > 138 µM (inactive); in experiment [8], > 32 µM (inactive). The EC50 at Cannabinoid receptor 1 [5] was > 32 µM (inactive); in experiment [6], > 32 µM (inactive); in experiment [7], 1.57 µM (active); at Cannabinoid receptor 2 [9], > 32 µM (inactive).
As for `CNC(=O)c1cc2c(=O)n3ccccc3nc2n(C2CCCC2)c1=N`, the EC50 was > 32 µM (inactive) in [10], > 32 µM (inactive) on Cannabinoid receptor 1 [11] and 2.52 µM (active) at Cannabinoid receptor 2 [14]. Further, the 50% inhibitory concentration (IC50) in experiment [12] was 5.92 µM (active); in experiment [13], > 32 µM (inactive); on Cannabinoid receptor 2 [15] it was > 32 µM (inactive); on Cannabinoid receptor 1 [16], > 32 µM (inactive).
Regarding `Cc1nn(Cc2ccccc2)c(Cl)c1C(=O)OC(C)C(=O)NCc1cccs1` (stereo not given), the EC50 in experiment [17] was > 50 µM (inactive).
As for `CCOC(=O)C(C)Oc1cccc2c(=O)n(CC(=O)NCc3ccc4c(c3)OCO4)ccc12` (stereo not given), the IC50 in experiment [18] is > 80 µM (inactive); in experiment [19], > 100 µM (inactive); in the experiment with J774.A1, 4.93 µM (active); in [20] it was > 100 µM (inactive); in [21], > 100 µM (inactive); in experiment [22], 11.4 µM (active).

These data come from ChEMBL document CHEMBL1201862, “PubChem BioAssay data set” (2004).
